# Entries after “also recorded” stand apart in the source; their conditions may differ. Where no end group is shown, it is not given here.
# Tests used:
# [1] = tested on: Chlamydia-infected HeLa cells; test: Inclusion integrity and vimentin cage by immunofluorescence and TEM; assay type: cell-based, C. trachomatis; details: for Vimentin re-organization / cage around the inclusion: infected HeLa cells treated with peptide
# Procedure: (§1) FIG. 9 depicts (A) CPAF inhibitory peptides block the generation of Chlamydia infectious particles. L2-infected HeLa cells were treated at 12 hpi with increasing concentration of peptides. EBs were harvested at 30 hpi and inclusion-forming units (IFU) were quantified on fresh cell monolayers. (B-D) CPAF activity is required to maintain inclusion integrity. The integrity of the inclusion was determined by assessing the immunolocalization of the inclusion membrane marker IncA (red) and Chlamydia (green) (B) and by transmission electron microscopy (C). […] (D) The percentage of vimentin-positive inclusions was determined by IF in infected cells treated with SEQ ID NO:7 and SEQ ID NO:11 (12 hpi) peptides at 24 hpi. (E) Activation of inflammatory cytokines upon inhibition of CPAF activity. Levels of IL-8 supernatants from Chlamydia infected cells treated with peptides as in (B-D) were determined at 24 hpi by ELISA.
# FIG. 19 depicts HeLa cells infected with C. trachomatis L2, treated with SEQ ID NO:11 and SEQ ID NO:7, and harvested at 30 hpi. (A) Immunofluorescence microscopy via staining with an anti-vimentin antibody (“vimentin”) and an anti-Chlamydia L2 antibody (“L2”). […] (B) Cells were lysed in the presence of protease inhibitors, resolved by SDS-PAGE, and subjected to immunoblot analysis. Vimentin, RpoD (bacterial loading control), and GAPDH (host loading control) were visualized with substrate-specific antibodies).
# For routine indirect immunofluorescence, HeLa cells were grown on glass coverslips and infected with Chlamydia at an MOI of 1. At the indicated times post-infection, cells were fixed with cold 3% formaldehyde, permeabilized with 0.1% Tx-100, blocked in 2% bovine serum albumin (BSA), and incubated with primary antibody followed by secondary fluorophore-conjugated anti-rabbit or anti-mouse IgG (available from Molecular Probes). Host and Chlamydial DNA were stained with 1 μM Hoechst (available from Invitrogen). […]
# CPAF = CPAF (Chlamydia trachomatis serovar D, UniProt O84866); test: HPLC-based CPAF inhibition assay with Abz-tagged model substrate (SEQ ID NO:9); assay type: biochemical, C. trachomatis; parameters: 6xHis; made in house; host or cells: E. coli BL21 (DE3), plasmid pET30b-CPAF
# Sequence of CPAF (O84866 276-601): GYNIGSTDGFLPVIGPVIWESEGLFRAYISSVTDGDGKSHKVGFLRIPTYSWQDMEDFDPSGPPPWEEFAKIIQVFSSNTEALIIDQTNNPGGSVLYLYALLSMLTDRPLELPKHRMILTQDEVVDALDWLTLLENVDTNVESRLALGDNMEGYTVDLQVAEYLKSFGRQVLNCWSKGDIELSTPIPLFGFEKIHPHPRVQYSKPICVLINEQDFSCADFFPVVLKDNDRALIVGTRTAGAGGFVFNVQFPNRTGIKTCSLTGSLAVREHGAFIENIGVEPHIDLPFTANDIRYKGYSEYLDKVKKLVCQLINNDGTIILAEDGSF
# Sequence of CPAF (O84866 1-234, added parts left off): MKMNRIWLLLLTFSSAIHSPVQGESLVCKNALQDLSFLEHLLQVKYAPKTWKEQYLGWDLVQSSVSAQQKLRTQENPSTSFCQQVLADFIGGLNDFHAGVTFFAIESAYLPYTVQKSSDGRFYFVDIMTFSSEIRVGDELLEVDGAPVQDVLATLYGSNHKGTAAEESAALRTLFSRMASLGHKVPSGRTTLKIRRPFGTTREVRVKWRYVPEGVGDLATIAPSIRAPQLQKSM
# Procedure: FIG. 1 depicts the results of HPLC-based CPAF inhibition assays using a model CPAF substrate (SEQ ID NO:9) to compare inhibition of CPAF protease activity by SEQ ID NO:7, SEQ ID NO:2, and lactacystin. HPLC-based assays were performed in a final volume of 100 μL containing assay buffer, CPAF (62.5 nM), substrate 1 (0.5 mM), and varying concentrations of inhibitor (0-240 μM).
# HPLC-based assays comprised an Abz-tagged model CPAF substrate (SEQ ID NO:9) and were performed in a final volume of 100 μL containing 150 mM NaCl, 50 mM Tris pH 7.50, purified CPAF (62.5 nM), fluorescent-tagged model CPAF substrate (0.5 mM), and varying concentrations of each candidate compound (0-240 μM). IC50 values were determined by pre-incubating CPAF with varying concentrations of candidate compound for 5 min at room temperature prior to initiation of the reaction via the addition of model CPAF substrate. Reactions were allowed to proceed for 90 seconds at 25° C., followed by removal of 80 μL aliquots and quenching by the addition of 1.2 M HCl (40 μL). Data were converted to percent activity relative to a control reaction without candidate compound and fit to the following equation using GraFit v6.0, where [I] is the concentration of candidate compound and s is a slope factor: […]
# IL-8 secretion = IL-8 secretion by infected HeLa cells (ELISA); assay type: cell-based, human; details: peptide 12.5 μM at 12 hpi, measured 24 hpi
# Procedure: as §1
# Next, the mechanism underlying the block in chlamydial replication was assessed by performing microscopy analyses of Chlamydia-infected cells treated with an inhibitor of CPAF (SEQ ID NO:7). […] IL-8 secretion into the media was determined with a Human IL-8 ELISA kit (available from BioLegend).
# [2] = tested on: epithelial cells infected with C. muridarum; test: Host cell death (condensed nuclei) in C. muridarum infected cells; assay type: cell-based; details: dose-dependent, peptide at 12 hpi
# Procedure: FIG. 12 depicts (A) low-magnification view of C. trachomatis LGV-L2 infected HeLa monolayers (30 h) treated with SEQ ID NO:7 or SEQ ID NO:11 peptides. (B) The frequency of condensed nuclei in treated cells is dependent on peptide concentration and Chlamydia infection. (C-D) Toxicity of CPAF inhibitors to Chlamydia-infected cells is observed in non-myeloid cells including human embryonic kidney cells HEK293 (C) and mouse embryo fibroblasts (D). […] (F-G) Cell death induced by anti-CPAF peptides requires Caspase-1 activation. HeLa cells infected with C. muridarum were treated with Ac-YVAD-CMK at 2 hpi, SEQ ID NO:7 peptide or SEQ ID NO:11 control peptide at 12 hpi and the percentage of infected cells with condensed nuclei was assessed at 48 hpi (F). Mouse lung fibroblasts (MLF) derived from congenic WT, ICE1^−/− and ASC^−/− animals were infected with C. muridarum and treated with the indicated concentrations of anti peptides 12 hpi. The percentage of infected cells with condensed nuclei was assessed at 48 hpi (G). LGV-L2 inclusions were immunostained with anti-L2 antisera and C. muridarum and C. caviae inclusions were immunostained with an anti-chlamydial LPS monoclonal antibody. Cell death in infected and uninfected cells treated with CPAF inhibitory peptides or control peptides was determined by counting the number of condensed nuclei of ˜1000 cells.
substance,measurement,setting,value
SLFYSPMVPHFWAELRNHYATSGLKRRRRRRRRR-NH2 [SEQ ID NO:7],Vimentin re-organization / cage around the inclusion,[1],loss of vimentin re-organization around the inclusion; also recorded: increased disorder in the position of the vimentin cage
same,Vimentin re-organization / cage around the inclusion,[1]; listed as peptide 4,loss of the vimentin cage
same,"Inclusion structure integrity (IncA, Cap1 localisation)",[1]; prolonged treatment (>8 h),collapse of the inclusion structure
same,IC50,"CPAF; CPAF 62.5 nM, substrate SEQ ID NO:9 0.5 mM, inhibitor 0-240 μM",50 ± 7 nM
same,CPAF inhibition relative to SEQ ID NO:2,"CPAF; HPLC-based assay, greater than SEQ ID NO:2",about 30 fold
same,CPAF inhibition relative to lactacystin,"CPAF; HPLC-based assay, greater than lactacystin",about 200 fold
same,IL-8 secretion,IL-8 secretion,increased IL-8 secretion
same,Number of condensed nuclei in C. muridarum infected cells,[2],marked increase in the number of condensed nuclei
